The subject of one assay is aged C57BL/6 mice. Kind of assay: Lifespan study in aged C57BL/6 mice. The class given is in vivo. Conditions: from age 24-27 months. The procedure: Starting at 24 to 27 months of age, C57BL/6 mice received intraperitoneal administration of vehicle or PCC1 every two weeks (n=80 for vehicle group; n=91 for PCC1 group). The median survival of animals in each group was calculated and indicated. ****, P<0.0001.
Starting at 24 to 27 months of age, C57BL/6 mice received intraperitoneal administration of vehicle or PCC1 every two weeks (n=80 for vehicle group; n=91 for PCC1 group). The median lifetime survival of animals in each group was calculated and indicated. ****, P <0.0001.
For the cell transplantation study, we obtained […] male C57BL/6 mice by serial rearing in the SPF animal platform, with 4 to 5 animals per cage. We first sorted the mice by body weight from low to high, and then selected mice with similar body weights. Next, the mice were assigned to senescence (SEN) or control (CTRL) transplant treatment at each interval using a random number generator, while the middle mice were assigned to the other treatment, so that the body weights of the senescence and control transplant mice were matched. One month after cell transplantation, when the mice were 18 months old, physical function tests were performed. After that, no further testing was done on the mice other than checking their cages. The earliest deaths occurred approximately 2 months after the last physical function test. […]

Assay [1] has as its system PC3/PSC27 xenograft tumors. Kind of assay: Disease-free survival of tumor-bearing NOD/SCID mice. It is filed as in vivo. Conditions: PCC1 alone. The text has this:
When the tumor volume in the vehicle, MIT, PCC1 and MIT/PCC1 groups exceeds 2000 mm^3, it is considered that severe disease has occurred, and the mice need to be killed in time and the tumor bearing status should be detected. ^, P>0.05; **, P<0.01.
We next compared the survival of animals in different drug-treated groups, primarily in a time-prolonged manner to assess the consequences of tumor progression. In this preclinical cohort, animals were monitored for prostate tumor growth, and severe disease was judged to have occurred once the […] tumor burden in mice was prominent (size ≥2000 mm^3), which was a method used for assessing progression of tumors and other diseases in certain conditions.

Molecules are shown by their SMILES.

In the case of `Oc1cc(O)c2c(c1)O[C@H](c1ccc(O)c(O)c1)[C@H](O)[C@H]2c1c(O)cc(O)c2c1O[C@H](c1ccc(O)c(O)c1)[C@H](O)[C@H]2c1c(O)cc(O)c2c1O[C@H](c1ccc(O)c(O)c1)[C@H](O)C2` [PCC1, procyanidin C1], the “risk of death HR, PCC1 group/vehicle group” value with aged C57BL/6 mice (P<0.0001) is recorded as 0.35. Also, in the assay on aged C57BL/6 mice (drug every two weeks), the “median survival period after treatment, longer than vehicle group” value amounted to 64.2%. Besides, the “survival benefit of single agent” value in assay [1] is recorded as “only a marginal extension of survival”.

The values above are taken from US12721832B2, “Anti-senescence plant polyphenol drug downregulating senescence-related secretory phenotype and use thereof” (BYHEALTH CO., LTD., priority 2021, dated 2026).
